Patent publication US12552823B2, “Glucosamine derivatives and pharmaceutical uses thereof” (RISEN (SUZHOU) PHARMA TECH CO., LTD., priority 2017, dated 2026)

How the values were obtained:
[1] = Pharmacokinetic studies in Sprague-Dawley (SD) rats: plasma GlcNBu after oral gavage of test compound; type: in vivo; design: key to AUC0-t / AUC0-∞ / t1/2z / Tmax / Vz/F / CLz/F / Cmax: (—): not detected; conditions: 0.93 mmol/kg; for AUC0-t / AUC0-∞ / CLz/F / Cmax / Tmax / Vz/F / t1/2z: Table 5, plasma GlcNBu after oral gavage of indicated compound
Procedure: A test compound is dissolved in water at a concentration determined by the desired dose and dosing volume for the specific animal to which the compound is to be administered. A calculated volume of dosing solution is administered to the animal (PO, SQ, IP, or IV). A blood sample is collected following administration of the test compound at specific time points (such as 0 minutes (min), 5 min, 10 min, 15 min, 30 min, 1 hour (h), 1.5 h, 2 h, 3 h, 4, 6 h, etc.). The blood sample is converted to a plasma sample using standard techniques. The plasma samples are analyzed to determine the concentration of the test compound and, in some cases, GlcNBu.
According to the above general procedure, SD rats were grouped randomly into groups of six (n=6). The test compound, GlcNBu or a compound provided herein, was administered to the animals by oral gavage at a dose of 0.93 mmol/kg. For illustration purposes, GlcNBu was given at an oral dose of 232 mg/kg (0.93 mmol/kg), and compound 16 was administered at an equal molar dose (0.93 mmol/kg, i.e., 362 mg/kg). At pre-set time points, blood was taken through orbital venous plexus extraction, and the samples were analyzed using LC/MS-MS to determine the GlcNBu concentration in the plasma.
In the figure, Curves labeled with -●- and -▴-represent plasma GlcNBu concentration following oral administration of GlcNBu (232 mg/kg, or 0.93 mmol/kg) and compound 16 ([…], or 0.93 mmol/kg), respectively. […] FIG. 2A and FIG. 2B show examples of other compounds of the invention, presented in plasma GlcNBu concentration versus time curves; a summary of pharmacokinetic parameters for these compounds is given in Table 4 and Table 5.

[2] = humans, polyvalent or monovalent form, compared with glucosamine; cited from earlier work
OVX rat = conditions: feeding in the OVX rat; cited from earlier work
[3] = system: destructive arthritis rat model; conditions: cited from earlier work
[4] = system: Medial Meniscus Transection (MMT) Model in Rats; test: Medial meniscus transection (MMT) model in rats: weight bearing and histopathology; type: in vivo, rat
Text: In the rat MMT model, the unilateral knee (right knee) was cleaned and prepped for surgery. An incision was made over the medial aspect of the femoro-tibial joint. The medial collateral ligament was exposed via blunt dissection and transected to reflect the meniscus toward the femur. A full thickness cut was made through the meniscus at its narrowest point. The joint space was returned to normal, and the skin was closed and the animal allowed to recover. For the present study, at second day post MMT induction animals, G1 and G2 animals were treatment with vehicle and test compound 16 respectively. Animals were dosed 4 times every day, and were dosed by gavage for 4 weeks.

[5] = system: Monosodium Iodoacetate-Induced Osteoarthritis (MIA) Model in Rat Knee; test: Monosodium iodoacetate-induced osteoarthritis (MIA) model in rat knee: weight bearing and histology; type: in vivo
Procedure: Osteoarthritis was induced by intra-articular (i.a.) injection of MIA solution in the rat knee joint as follows: Briefly, rats were anesthetized with isoflurane and given a single i.a. administration of 2 mg of MIA dissolved in saline through the intrapatellar ligament of the right knee. MIA was administered in a volume of 50 μL. Basal readings were established using a group of control rats injected with 10% ethanol in water. Rats were randomized by initial body weight to groups of 6 or 7. After MIA injection, the MIA groups began treatment with either vehicle, or a test compound at a preset dose regime for a period of 28 days. Clinical observations were recorded, including body weight, joint swelling, and weight bearing, on pre-induction day (day 0), day 3, 5, 7, 14, 21 and/or 28. At the end of the study, the animals were euthanized by CO2 and sacrificed.
Joint samples including the tibia and femur were sectioned in the coronal plane and stained using both H&E and Safranin-O. Knee joints were examined and scored for cartilage degeneration, the presence of osteophytes, the amount and extent of calcified cartilage and subchondral bone damage, and the amount of synovial membrane inflammation using the Osteoarthritis Research Society International (OARSI) scoring system put forth in 2010 (Kraus, V. B. et al., Osteoarthritis Cartilage, 2010, Suppl 3:535-52).
Studies of compound 16 in the MIA model were conducted as described above.

Structure (SMILES) | AUC0-t [1] | AUC0-∞ [1] | CLz/F [1] | Cmax [1] | Tmax [1] | Vz/F [1] | t1/2z [1] | also measured
CCCC(=O)N[C@H]1C(OCc2ccccc2)O[C@H](CO)[C@@H](O)[C@@H]1O (stereo partly drawn) [Compound 75, 1-O-benzyl-2-N-butyryl-D-glucosamine] | (—) | (—) | (—) | (—) | (—) | (—) | (—) | –
CC(=O)N[C@H]1C(O)O[C@H](CO)[C@@H](O)[C@@H]1O (stereo partly shown) [N-acetylglucosamine] | – | – | – | – | – | – | – | half-life [2]: longer half-life than glucosamine
CCCC(=O)N[C@H]1C(OCc2ccccc2)O[C@H](CO)[C@@H](O)[C@@H]1OCc1ccccc1 (stereo partly drawn) [Compound 76, 2-N-butyryl-1,3-di-O-benzyl-D-glucosamine] | (—) | (—) | (—) | (—) | (—) | (—) | (—) | –
CCCC(=O)N[C@H]1C(O)O[C@H](CO)[C@@H](O)[C@@H]1O (stereo partly shown) [GlcNBu, N-butyryl glucosamine] | – | – | – | – | – | – | – | bone mineral and biomechanical properties (OVX rat): preserves bone mineral and some biomechanical properties; subchondral bone structure [3]: preserved strikingly the subchondral bone structure
CCCC(=O)N[C@H]1C(O)O[C@H](COC(=O)CCC)[C@@H](OC(=O)CCC)[C@@H]1O (stereo partly drawn) [Compound 16, 2-N-butyryl-4,6-O-tributyryl-D-glucosamine] | – | – | – | – | – | – | – | plasma drug exposure ([1]; versus GlcNBu at mole-equivalent oral dose): improved plasma drug exposure significantly; degeneration changes of chondrocyte clustering ([4]; G2 as compared with G1): significantly lower; weight bearing on the right paw ([4]; G2 as compared with G1 on Day 3 and Days 14-28): significantly increased; histology parameters ([4]; G2 vs G1, all parameters): values in all parameters lower; articular cartilage degeneration ([5]; MIA-induced OA rat model): slowed the articular cartilage degeneration; weight bearing on the back-right leg ([5]; day 5, all compound-treated groups (234 and 468 mg/kg) vs vehicle): significant increases; weight bearing ([5]; day 14, high dose (G3, 468 mg/kg) vs vehicle): significant increases; osteophytes (histology) ([5]; high dose group (468 mg/kg) compared with vehicle group): significantly decreased; other histological parameters (mean values) ([5]; high dose treated group (468 mg/kg) vs vehicle): clear trend of lowering all other mean values

Second part, led by results:

AUC0-t [1] | AUC0-∞ [1] | CLz/F [1] | Cmax [1] | Tmax [1] | Vz/F [1] | t1/2z [1] | Structure (SMILES) | also measured
(—) | (—) | (—) | (—) | (—) | (—) | (—) | CCCC(=O)N[C@H]1C(O)O[C@H](COC(=O)CCC(=O)O)[C@@H](OC(=O)CCC(=O)O)[C@@H]1O (stereo partly drawn) [Compound 79, 2-N-butyryl-4,6-di-O-(4-hydroxy-4-oxo-butyryl)-D-glucosamine] | –
(—) | (—) | (—) | (—) | (—) | (—) | (—) | CCCC(=O)N[C@H]1C(O)O[C@H](COC(=O)NCCCC(=O)O)[C@@H](O)[C@@H]1O (stereo partly drawn) [Compound 94, 2-N-butyryl-6-O-((3-carboxy-1-propyl)aminocarbonyl)-D-glucosamine] | –
